# Results: patent US8551453B2, “Aromatic triamide-lanthanide complexes” (The Regents of the University of California, priority 2003, dated 2013)
# What was measured:
# Format in all cases: physicochemical
# [1] = Protonation constants of the ligand by spectrophotometric titration; settings: free ligand; for PKa: IAM
# [2] = Stability constants of the Eu complex by spectrophotometric titration
# Experimental: FIG. 3 Spectrophotometric titration of a 1:1 ratio Eu:H22MeTIAM (9A): I=0.1, 25° C., optical path=1 cm.
# (§1) The stability constants of the lanthanide complexes formed with the ligand H22TAMDIAM(9A) were estimated through spectrophotometric titrations.
# (§2) The stability constants of the Eu and Tb complexes formed with the ligand H22TAMDIAM (9A) have been calculated form these experiments and the results are reported in the table.
# [3] = Stability constants of the Tb complex by spectrophotometric titration
# Text: as §1, §2
substance,measurement,setting,value
"H4H(2,2)TIAM [Compound 9A]",Proton Affinity Log […]011,"[1]; cumulative protonation constant, 1 proton (phenolic)",8.58(2)
same,Proton Affinity Log […]012,"[1]; cumulative protonation constant, 2 protons",15.17(3)
same,Proton Affinity Log […]013,"[1]; cumulative protonation constant, 3 protons",20.38(4)
same,Proton Affinity Log […]014,"[1]; cumulative protonation constant, 4 protons",24.46(6)
same,PKa,[1]; first phenolic proton (line Log […]011),8.58
same,PKa,[1]; fourth phenolic proton (line Log […]014),4.08
same,PKa,[1]; second phenolic proton (line Log […]012),6.59
same,PKa,[1]; third phenolic proton (line Log […]013),5.21
same,Log[…]11-1,"[2]; 1:1 Eu:ligand, I=0.1, 25° C.",11.04(2)
same,Log[…]11-2,"[2]; 1:1 Eu:ligand, I=0.1, 25° C.",1.98(10)
same,Log[…]110,"[2]; 1:1 Eu:ligand, I=0.1, 25° C.",17.29(1)
same,pKa,[2]; line Log[…]11-1,6.25
same,pKa,[2]; line Log[…]11-2,9.06
same,pM,[2]; n = 3,"Eu, pM = 18.2, n = 3"
same,Log[…]11-1,[3],12.60(7)
same,Log[…]11-2,[3],3.62(9)
same,Log[…]110,[3],17.85(3)
same,pKa,[3]; line Log[…]11-1,5.25
same,pKa,[3]; line Log[…]11-2,8.98
same,pM,[3]; n = 3,"Tb, pM = 19.7,n = 3"
